Data taken from ChEMBL document CHEMBL3885861, “Open TG-GATES”.

Organism: Rattus norvegicus
Assay: Open TG-GATES - Regimen: Daily Repeat
Format: toxicity, organism-based, Sprague-Dawley
Parameters: regimen Daily Repeat, gender Male, age 6 weeks
Conditions: in vivo, po, route gavage; for APTT / Bas / Eos / Fbg / Hb / Ht / Lym / MCH / MCHC / MCV / Mono / Neu / PT / Plat / RBC / Ret / WBC: tissue Blood; for KIDNEY_L / KIDNEY_R / KIDNEY_TOTAL: tissue Kidney; for LIVER: tissue Liver; for A/G / ALP / ALT / AST / BUN / CRE / Ca / Cl / DBIL / GLC / IP / K / LDH / Na / PL / RALB / TBIL / TC / TG / TP / gamma-GTP: tissue Plasma
[1] = 300 mg/kg, 72 h, dose level Middle, time 3 day
[2] = 300 mg/kg, […], dose level Middle, time 7 day
[3] = 300 mg/kg, […], dose level Middle, time 14 day
[4] = 300 mg/kg, […], dose level Middle, time 28 day
[5] = 1000 mg/kg, 72 h, dose level High, time 3 day
[6] = 1000 mg/kg, […], dose level High, time 7 day
[7] = 1000 mg/kg, […], dose level High, time 14 day
[8] = 1000 mg/kg, […], dose level High, time 28 day

## COc1ccc(Cl)cc1C(=O)NCCc1ccc(S(=O)(=O)NC(=O)NC2CCCCC2)cc1 [GLYBURIDE]
[1]
  TERMINAL_BW: 227.7 g
  APTT: 19.4 s
  Bas: 0%
  Eos: 1%
  Fbg: 222.4 mg/dL
  Hb: 13.3 g/dL
  Ht: 39.4%
  Lym: 79.6%
  MCH: 21.3 pg
  MCHC: 33.7%
  MCV: 63.2 fL
  Mono: 2.8%
  Neu: 16.4%
  PT: 12.4 s
  Plat: 120.5 x10_4/uL
  RBC: 624 x10_4/ul
  Ret: 5.4%
  WBC: 97.9 x10_2/uL
  KIDNEY_L: 1 g
  KIDNEY_R: 1 g
  KIDNEY_TOTAL: 2.1 g
  LIVER: 10.5 g
  A/G: 1.5
  ALP: 912.2 IU/L
  ALT: 40.4 IU/L
  AST: 65.4 IU/L
  BUN: 14.2 mg/dL
  CRE: 0.4 mg/dL
  Ca: 10.7 mg/dL
  Cl: 103 meq/L
  DBIL: 0.088 mg/dL
  GLC: 194.6 mg/dL
  IP: 7.1 mg/dL
  K: 3.8 meq/L
  LDH: 190.4 IU/L
  Na: 140.6 meq/L
  PL: 135.6 mg/dL
  RALB: 3.3 g/dL
  TBIL: 0.1 mg/dL
  TC: 72 mg/dL
  TG: 71.4 mg/dL
  TP: 5.4 g/dL
  gamma-GTP: 0.6 IU/L
[2]
  TERMINAL_BW: 262.8 g
  APTT: 20.6 s
  Bas: 0%
  Eos: 1%
  Fbg: 220.6 mg/dL
  Hb: 13.6 g/dL
  Ht: 40%
  Lym: 78.4%
  MCH: 20.6 pg
  MCHC: 34%
  MCV: 60.5 fL
  Mono: 2.4%
  Neu: 17.8%
  PT: 12.5 s
  Plat: 128.7 x10_4/uL
  RBC: 661.2 x10_4/ul
  Ret: 5.2%
  WBC: 99.5 x10_2/uL
  KIDNEY_L: 1.1 g
  KIDNEY_R: 1.1 g
  KIDNEY_TOTAL: 2.2 g
  LIVER: 12.1 g
  A/G: 1.5
  ALP: 861.6 IU/L
  ALT: 33.4 IU/L
  AST: 59.2 IU/L
  BUN: 14.6 mg/dL
  CRE: 0.4 mg/dL
  Ca: 10.8 mg/dL
  Cl: 102.4 meq/L
  DBIL: 0.084 mg/dL
  GLC: 195.6 mg/dL
  IP: 6.8 mg/dL
  K: 3.8 meq/L
  LDH: 163.8 IU/L
  Na: 140.6 meq/L
  PL: 140.6 mg/dL
  RALB: 3.3 g/dL
  TBIL: 0.1 mg/dL
  TC: 67.8 mg/dL
  TG: 87.6 mg/dL
  TP: 5.6 g/dL
  gamma-GTP: 1.2 IU/L
[3]
  TERMINAL_BW: 322.5 g
  APTT: 21.4 s
  Bas: 0%
  Eos: 1%
  Fbg: 226.6 mg/dL
  Hb: 14.1 g/dL
  Ht: 41.1%
  Lym: 81.2%
  MCH: 20.5 pg
  MCHC: 34.4%
  MCV: 59.6 fL
  Mono: 3.2%
  Neu: 13.8%
  PT: 12.3 s
  Plat: 124.7 x10_4/uL
  RBC: 689.4 x10_4/ul
  Ret: 4.5%
  WBC: 105.4 x10_2/uL
  KIDNEY_L: 1.2 g
  KIDNEY_R: 1.2 g
  KIDNEY_TOTAL: 2.5 g
  LIVER: 14 g
  A/G: 1.4
  ALP: 818.6 IU/L
  ALT: 40 IU/L
  AST: 64.2 IU/L
  BUN: 15.8 mg/dL
  CRE: 0.5 mg/dL
  Ca: 10.7 mg/dL
  Cl: 102.4 meq/L
  DBIL: 0.1 mg/dL
  GLC: 178 mg/dL
  IP: 6.8 mg/dL
  K: 4 meq/L
  LDH: 162.8 IU/L
  Na: 140.4 meq/L
  PL: 166.8 mg/dL
  RALB: 3.5 g/dL
  TBIL: 0.2 mg/dL
  TC: 80.8 mg/dL
  TG: 125 mg/dL
  TP: 6 g/dL
  gamma-GTP: 1.6 IU/L
[4]
  TERMINAL_BW: 400.8 g
  APTT: 21.1 s
  Bas: 0%
  Eos: 1%
  Fbg: 217.4 mg/dL
  Hb: 15 g/dL
  Ht: 42.8%
  Lym: 81.6%
  MCH: 19.6 pg
  MCHC: 34.9%
  MCV: 56.1 fL
  Mono: 2.2%
  Neu: 14.8%
  PT: 12.5 s
  Plat: 110.1 x10_4/uL
  RBC: 762.8 x10_4/ul
  Ret: 2.6%
  WBC: 109.6 x10_2/uL
  KIDNEY_L: 1.4 g
  KIDNEY_R: 1.3 g
  KIDNEY_TOTAL: 2.7 g
  LIVER: 16.8 g
  A/G: 1.3
  ALP: 681.2 IU/L
  ALT: 35.4 IU/L
  AST: 62.2 IU/L
  BUN: 15.4 mg/dL
  CRE: 0.5 mg/dL
  Ca: 10.5 mg/dL
  Cl: 104.4 meq/L
  DBIL: 0.1 mg/dL
  GLC: 213 mg/dL
  IP: 6.2 mg/dL
  K: 3.7 meq/L
  LDH: 150.8 IU/L
  Na: 142 meq/L
  PL: 140.6 mg/dL
  RALB: 3.4 g/dL
  TBIL: 0.2 mg/dL
  TC: 67.2 mg/dL
  TG: 114.4 mg/dL
  TP: 5.9 g/dL
  gamma-GTP: 0.6 IU/L
[5]
  TERMINAL_BW: 228 g
  APTT: 20.6 s
  Bas: 0%
  Eos: 1.2%
  Fbg: 221.4 mg/dL
  Hb: 13.5 g/dL
  Ht: 40.2%
  Lym: 79.2%
  MCH: 21.1 pg
  MCHC: 33.6%
  MCV: 62.9 fL
  Mono: 2.4%
  Neu: 16.4%
  PT: 12.3 s
  Plat: 120.1 x10_4/uL
  RBC: 640 x10_4/ul
  Ret: 5.2%
  WBC: 112.9 x10_2/uL
  KIDNEY_L: 1 g
  KIDNEY_R: 1 g
  KIDNEY_TOTAL: 2 g
  LIVER: 11.1 g
  A/G: 1.6
  ALP: 893.4 IU/L
  ALT: 36.4 IU/L
  AST: 61.4 IU/L
  BUN: 15.2 mg/dL
  CRE: 0.4 mg/dL
  Ca: 10.8 mg/dL
  Cl: 102.8 meq/L
  DBIL: 0.094 mg/dL
  GLC: 200.2 mg/dL
  IP: 6.7 mg/dL
  K: 4 meq/L
  LDH: 179.2 IU/L
  Na: 140.6 meq/L
  PL: 150.2 mg/dL
  RALB: 3.4 g/dL
  TBIL: 0.1 mg/dL
  TC: 74.4 mg/dL
  TG: 93.4 mg/dL
  TP: 5.5 g/dL
  gamma-GTP: 1 IU/L
[6]
  TERMINAL_BW: 260.9 g
  APTT: 19.8 s
  Bas: 0.2%
  Eos: 1%
  Fbg: 220 mg/dL
  Hb: 13.6 g/dL
  Ht: 40%
  Lym: 81%
  MCH: 20.7 pg
  MCHC: 34%
  MCV: 60.8 fL
  Mono: 2.2%
  Neu: 15.2%
  PT: 12.4 s
  Plat: 129 x10_4/uL
  RBC: 658.4 x10_4/ul
  Ret: 5.2%
  WBC: 109.6 x10_2/uL
  KIDNEY_L: 1.1 g
  KIDNEY_R: 1.1 g
  KIDNEY_TOTAL: 2.2 g
  LIVER: 12.5 g
  A/G: 1.4
  ALP: 962.2 IU/L
  ALT: 35 IU/L
  AST: 61.6 IU/L
  BUN: 16.2 mg/dL
  CRE: 0.4 mg/dL
  Ca: 10.8 mg/dL
  Cl: 102.6 meq/L
  DBIL: 0.1 mg/dL
  GLC: 212 mg/dL
  IP: 6.9 mg/dL
  K: 3.8 meq/L
  LDH: 169.4 IU/L
  Na: 140.8 meq/L
  PL: 151.4 mg/dL
  RALB: 3.3 g/dL
  TBIL: 0.2 mg/dL
  TC: 73 mg/dL
  TG: 123.6 mg/dL
  TP: 5.6 g/dL
  gamma-GTP: 1.4 IU/L
[7]
  TERMINAL_BW: 308.1 g
  APTT: 20.5 s
  Bas: 0%
  Eos: 0.8%
  Fbg: 224.4 mg/dL
  Hb: 14 g/dL
  Ht: 40.6%
  Lym: 81%
  MCH: 20.7 pg
  MCHC: 34.6%
  MCV: 59.9 fL
  Mono: 2.4%
  Neu: 15.2%
  PT: 12.2 s
  Plat: 116.7 x10_4/uL
  RBC: 678.6 x10_4/ul
  Ret: 4.5%
  WBC: 129.3 x10_2/uL
  KIDNEY_L: 1.2 g
  KIDNEY_R: 1.2 g
  KIDNEY_TOTAL: 2.4 g
  LIVER: 13.8 g
  A/G: 1.5
  ALP: 801.6 IU/L
  ALT: 33.4 IU/L
  AST: 56.8 IU/L
  BUN: 14.6 mg/dL
  CRE: 0.5 mg/dL
  Ca: 10.6 mg/dL
  Cl: 102.8 meq/L
  DBIL: 0.1 mg/dL
  GLC: 174.6 mg/dL
  IP: 6.7 mg/dL
  K: 3.7 meq/L
  LDH: 115 IU/L
  Na: 141 meq/L
  PL: 151 mg/dL
  RALB: 3.6 g/dL
  TBIL: 0.2 mg/dL
  TC: 72.4 mg/dL
  TG: 102.2 mg/dL
  TP: 5.9 g/dL
  gamma-GTP: 1.4 IU/L
[8]
  TERMINAL_BW: 392.8 g
  APTT: 20.5 s
  Bas: 0%
  Eos: 1%
  Fbg: 218.2 mg/dL
  Hb: 14.9 g/dL
  Ht: 42.8%
  Lym: 81.4%
  MCH: 19.5 pg
  MCHC: 34.8%
  MCV: 56 fL
  Mono: 2.4%
  Neu: 14.4%
  PT: 12.3 s
  Plat: 99 x10_4/uL
  RBC: 766.2 x10_4/ul
  Ret: 2.7%
  WBC: 123.6 x10_2/uL
  KIDNEY_L: 1.3 g
  KIDNEY_R: 1.4 g
  KIDNEY_TOTAL: 2.7 g
  LIVER: 16 g
  A/G: 1.4
  ALP: 552.4 IU/L
  ALT: 31.6 IU/L
  AST: 55.2 IU/L
  BUN: 16 mg/dL
  CRE: 0.5 mg/dL
  Ca: 10.3 mg/dL
  Cl: 103 meq/L
  DBIL: 0.098 mg/dL
  GLC: 230.2 mg/dL
  IP: 6.5 mg/dL
  K: 4.2 meq/L
  LDH: 131 IU/L
  Na: 141 meq/L
  PL: 153.2 mg/dL
  RALB: 3.5 g/dL
  TBIL: 0.2 mg/dL
  TC: 75.6 mg/dL
  TG: 102 mg/dL
  TP: 6 g/dL
  gamma-GTP: 0.8 IU/L
